Source: patent publication US20240228458A1, “PYRIMIDINE DERIVATIVE HAVING PROTEIN KINASE INHIBITORY ACTIVITY, AND THERAPEUTIC PHARMACEUTICAL COMPOSITION COMPRISING SAME” (THERAPEX CO., LTD., priority 2021, published 2024)

Assays:
Assay type in all cases: cell-based
[1] = test system: Ba/F3 cells expressing EGFR-wt; test: Growth inhibition (GI50) of Ba/F3 cells expressing EGFR-wt, Celltiter glo; conditions: Mus musculus, BaF3, 72 h
Procedure, shortened: (§1)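 Steps: plate engineered Ba/F3 cells (100,000 cells/ml); wait 4 h; add compound as a 4-fold, 10-point dilution series made from 2 mM stock, DMSO 0.5%; incubate 72 h at 37 °C under 5% CO2; measure ATP-based viability with CellTiter-Glo; calculate GI50.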

[2] = test system: Ba/F3 cells expressing del19/T790M (EGFR-DT); test: Growth inhibition (GI50) of Ba/F3 cells expressing del19/T790M (EGFR-DT), Celltiter glo; conditions: Mus musculus, BaF3, 72 h
Procedure, shortened: as §1

[3] = test system: Ba/F3 cells expressing L858R/T790M/C797S (EGFR-LTC); test: Growth inhibition (GI50) of Ba/F3 cells expressing L858R/T790M/C797S (EGFR-LTC), Celltiter glo; conditions: Mus musculus, BaF3, 72 h
Procedure, shortened: as §1

[4] = test system: parental Ba/F3 cell line; test: Growth inhibition (GI50) of the parental Ba/F3 cell line (not introduced with EGFR variants), Celltiter glo; conditions: Mus musculus, BaF3, 72 h, parental Ba/F3 cells
Procedure, shortened: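 Parental Ba/F3 cells (100,000 cells/ml) were treated with 10-point, 4-fold compound dilutions (0.5% DMSO; top stock 2 mM) for 72 h at 37 °C, 5% CO2. Viability was read by CellTiter-Glo; GI50 is the concentration (μM) giving 50% growth inhibition.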

[5] = test system: Ba/F3 cells expressing del19/T790M/C797S (EGFR-DTC); test: Growth inhibition (GI50) of Ba/F3 cells expressing del19/T790M/C797S (EGFR-DTC), Celltiter glo; conditions: Mus musculus, BaF3, 72 h
Procedure, shortened: as §1

[6] = test system: Ba/F3 cells expressing L858R/T790M (EGFR-LT); test: Growth inhibition (GI50) of Ba/F3 cells expressing L858R/T790M (EGFR-LT), Celltiter glo; conditions: Mus musculus, BaF3, 72 h
Procedure, shortened: as §1

For `CN1CCN(C2CCN(c3ncc(Nc4ncc(Cl)c(Nc5cc6c(cc5NS(C)(=O)=O)CCO6)n4)cc3F)CC2)CC1` [Example 242, N-(6-((5-chloro-2-((5-fluoro-6-(4-(4-methylpiperazin-1-yl)piperidin-1-yl)pyridin-3-yl)amino)pyrimidin-4-yl)amino)-2,3-dihydrobenzofuran-5-yl)methanesulfonamide], the GI50 [1] was 2000 to 10000 nM, the GI50 [2] was 500 to 2000 nM and the GI50 [3] was 25 to 100 nM. It also gave a GI50 [4] of 2000 to 10000 nM, a GI50 [5] of 2000 to 10000 nM and a GI50 [6] of 1 to 25 nM.

`COc1cc(N2CCC(N3CCN(C)CC3)CC2)ccc1Nc1ncc(Br)c(Nc2cc3c(cc2NS(C)(=O)=O)CCO3)n1` [Example 243, N-(6-((5-bromo-2-((2-methoxy-4-(4-(4-methylpiperazin-1-yl)piperidin-1-yl)phenyl)amino)pyrimidin-4-yl)amino)-2,3-dihydrobenzofuran-5-yl)methanesulfonamide] gave a GI50 [1] of 500 to 2000 nM, a GI50 [2] of 100 to 500 nM and a GI50 [3] of 1 to 25 nM. The GI50 [4] was 2000 to 10000 nM, the GI50 [5] was 100 to 500 nM and the GI50 [6] was 1 to 25 nM.

In the case of `CN1CCN(C2CCN(c3ccc(Nc4ncc(Br)c(Nc5cc6c(cc5NS(C)(=O)=O)CCO6)n4)cc3F)CC2)CC1` [Example 244, N-(6-((5-bromo-2-((3-fluoro-4-(4-(4-methylpiperazin-1-yl)piperidin-1-yl)phenyl)amino)pyrimidin-4-yl)amino)-2,3-dihydrobenzofuran-5-yl)methanesulfonamide], the GI50 [1] was 25 to 100 nM, the GI50 [2] was 1 to 25 nM and the GI50 [3] was 1 to 25 nM. The GI50 [4] was 100 to 500 nM, the GI50 [5] was 25 to 100 nM and the GI50 [6] was 1 to 25 nM.

Work on `COc1cc(N2CCC(N3CCC(C(F)(F)F)CC3)CC2)c(C)cc1Nc1ncc(Br)c(Nc2cc3c(cc2NS(C)(=O)=O)CCO3)n1` [Example 245, N-(6-((5-bromo-2-((2-methoxy-5-methyl-4-(4-(trifluoromethyl)-[1,4′-bipiperidin]-1′-yl)phenyl)amino)pyrimidin-4-yl)amino)-2,3-dihydrobenzofuran-5-yl)methanesulfonamide] yielded a GI50 [1] of 2000 to 10000 nM, a GI50 [2] of 100 to 500 nM and a GI50 [3] of 1 to 25 nM. The GI50 [4] was 2000 to 10000 nM, the GI50 [5] was 25 to 100 nM and the GI50 [6] was 1 to 25 nM.

`CN1CCN(C2CCN(c3ccc(Nc4ncc(Br)c(Nc5cc6c(cc5NS(C)(=O)=O)CCO6)n4)c(Cl)c3)CC2)CC1` [Example 246] gave a GI50 [1] of 500 to 2000 nM, a GI50 [2] of 100 to 500 nM and a GI50 [3] of 1 to 25 nM. The GI50 [4] was 2000 to 10000 nM, the GI50 [5] was 100 to 500 nM and the GI50 [6] was 1 to 25 nM.

Compound `CN1CCN(C2CCN(c3ccc4cc(Nc5ncc(Br)c(Nc6cc7c(cc6NS(C)(=O)=O)CCO7)n5)ccc4n3)CC2)CC1` [Example 247, N-(6-((5-bromo-2-((2-(4-(4-methylpiperazin-1-yl)piperidin-1-yl)quinolin-6-yl)amino)pyrimidin-4-yl)amino)-2,3-dihydrobenzofuran-5-yl)methanesulfonamide] has a GI50 [1] of 500 to 2000 nM, a GI50 [2] of 25 to 100 nM and a GI50 [3] of 100 to 500 nM. It also gave a GI50 [4] of 2000 to 10000 nM, a GI50 [5] of 100 to 500 nM and a GI50 [6] of 100 to 500 nM.

In the case of `COc1cc(N2CCC(N3CCN(C)CC3)CC2)c(C)cc1Nc1ncc(Cl)c(Nc2cc3c(cc2N(C)S(C)(=O)=O)CCO3)n1` [Example 248, N-(6-((5-chloro-2-((2-methoxy-5-methyl-4-(4-(4-methylpiperazin-1-yl)piperidin-1-yl)phenyl)amino)pyrimidin-4-yl)amino)-2,3-dihydrobenzofuran-5-yl)-N-methylmethanesulfonamide], the GI50 [1] was 100 to 500 nM, the GI50 [2] was 1 to 25 nM and the GI50 [3] was 1 to 25 nM. The GI50 [4] was 2000 to 10000 nM, the GI50 [5] was 25 to 100 nM and the GI50 [6] was 1 to 25 nM.

Work on `COc1cc(N2CCC(N3CCN(C)CC3)CC2)c(Cl)cc1Nc1ncc(Cl)c(Nc2cc3c(cc2N(C)S(C)(=O)=O)CCO3)n1` [Example 249, N-(6-((5-chloro-2-((5-chloro-2-methoxy-4-(4-(4-methylpiperazin-1-yl)piperidin-1-yl)phenyl)amino)pyrimidin-4-yl)amino)-2,3-dihydrobenzofuran-5-yl)-N-methylmethanesulfonamide] yielded a GI50 [1] of 100 to 500 nM, a GI50 [2] of 1 to 25 nM and a GI50 [3] of 1 to 25 nM. The GI50 [4] was 2000 to 10000 nM, the GI50 [5] was 25 to 100 nM and the GI50 [6] was 1 to 25 nM.

`COc1cc(N2CCC(N3CCN(C)CC3)CC2)c(C)cc1Nc1ncc(Br)c(Nc2cc3c(cc2N(C)S(C)(=O)=O)CCO3)n1` [Example 250, N-(6-((5-bromo-2-((2-methoxy-5-methyl-4-(4-(4-methylpiperazin-1-yl)piperidin-1-yl)phenyl)amino)pyrimidin-4-yl)amino)-2,3-dihydrobenzofuran-5-yl)-N-methylmethanesulfonamide] showed a GI50 [1] of 100 to 500 nM, a GI50 [2] of 1 to 25 nM and a GI50 [3] of 1 to 25 nM. It also gave a GI50 [4] of 2000 to 10000 nM, a GI50 [5] of 1 to 25 nM and a GI50 [6] of 1 to 25 nM.

`Cc1cc(Nc2ncc(Br)c(Nc3cc4c(cc3N(C)S(C)(=O)=O)CCO4)n2)c(Cl)cc1N1CCC(N2CCN(C)CC2)CC1` [Example 251, N-(6-((5-bromo-2-((2-chloro-5-methyl-4-(4-(4-methylpiperazin-1-yl)piperidin-1-yl)phenyl)amino)pyrimidin-4-yl)amino)-2,3-dihydrobenzofuran-5-yl)-N-methylmethanesulfonamide] gave a GI50 [1] of 100 to 500 nM, a GI50 [2] of 1 to 25 nM and a GI50 [3] of 1 to 25 nM. For the same compound, the GI50 [4] was 2000 to 10000 nM, the GI50 [5] was 25 to 100 nM and the GI50 [6] was 25 to 100 nM.

For `COc1cc(N2CCC(N3CCN(C)CC3)CC2)c(Cl)cc1Nc1ncc(Br)c(Nc2cc3c(cc2N(C)S(C)(=O)=O)CCO3)n1` [Example 252, N-(6-((5-bromo-2-((5-chloro-2-methoxy-4-(4-(4-methylpiperazin-1-yl)piperidin-1-yl)phenyl)amino)pyrimidin-4-yl)amino)-2,3-dihydrobenzofuran-5-yl)-N-methylmethanesulfonamide], the GI50 [1] was 25 to 100 nM, the GI50 [2] was 1 to 25 nM and the GI50 [3] was 1 to 25 nM. It also gave a GI50 [4] of 2000 to 10000 nM, a GI50 [5] of 25 to 100 nM and a GI50 [6] of 1 to 25 nM.

For `CN1CCN(C2CCN(c3cc(Cl)c(Nc4ncc(Br)c(Nc5cc6c(cc5N(C)S(C)(=O)=O)CCO6)n4)cc3Cl)CC2)CC1` [Example 253, N-(6-((5-bromo-2-((2,5-dichloro-4-(4-(4-methylpiperazin-1-yl)piperidin-1-yl)phenyl)amino)pyrimidin-4-yl)amino)-2,3-dihydrobenzofuran-5-yl)-N-methylmethanesulfonamide], the GI50 [1] was 500 to 2000 nM, the GI50 [2] was 25 to 100 nM and the GI50 [3] was 25 to 100 nM. For the same compound, the GI50 [4] was 100 to 500 nM, the GI50 [5] was 1 to 25 nM and the GI50 [6] was 25 to 100 nM.

In the case of `CCc1cc(Nc2ncc(Br)c(Nc3cc4c(cc3N(C)S(C)(=O)=O)CCO4)n2)c(OC)cc1N1CCC(N2CCN(C)CC2)CC1` [Example 254, N-(6-((5-bromo-2-((5-ethyl-2-methoxy-4-(4-(4-methylpiperazin-1-yl)piperidin-1-yl)phenyl)amino)pyrimidin-4-yl)amino)-2,3-dihydrobenzofuran-5-yl)-N-methylmethanesulfonamide], the GI50 [1] was 500 to 2000 nM, the GI50 [2] was 1 to 25 nM and the GI50 [3] was 25 to 100 nM. For the same compound, the GI50 [4] was 500 to 2000 nM, the GI50 [5] was 1 to 25 nM and the GI50 [6] was 25 to 100 nM.

In the case of `COc1cc(N2CCC(N3CCN(C(F)(F)F)CC3)CC2)c(C)cc1Nc1ncc(Br)c(Nc2cc3c(cc2N(C)S(C)(=O)=O)CCO3)n1` [Example 255, N-(6-((5-bromo-2-((2-methoxy-5-methyl-4-(4-(4-(trifluoromethyl)piperazin-1-yl)piperidin-1-yl)phenyl)amino)pyrimidin-4-yl)amino)-2,3-dihydrobenzofuran-5-yl)-N-methylmethanesulfonamide], the GI50 [1] was 2000 to 10000 nM, the GI50 [2] was 25 to 100 nM and the GI50 [3] was 100 to 500 nM. It also gave a GI50 [4] of 2000 to 10000 nM, a GI50 [5] of 25 to 100 nM and a GI50 [6] of 100 to 500 nM.
